Data from patent publication US8658672B2, “HIF-1α activating agent” (University of Seoul Foundation of Industrial and Academic …, priority 2006, dated 2014).

Experiments:
HIF-1α [1] = test: Effects of CQ and TPEN on HIF-1α stabilization in HepG2 cells (Western blotting); assay type: cell-based, human; settings: 6 hours, TPEN 5 μM
Method: Human HepG2 hepatoma cells (ATCC HB-8065) were cultured under normoxic condition and under hypoxic condition, respectively. HepG2 cells were cultured in MEM (Invitrogen, USA) containing non-essential amino acids and supplemented with 10% FBS (fetal bovine serum: Biowhittaker, USA). The cells were made hypoxic by incubation in anaerobic incubator (Model 1029, Form a Scientific. Inc) at 37° C. with 5% CO2, 10% H2 and 85% N2. The cells were treated with drugs one hour before incubation under hypoxic condition. To separate RNAs, the cells were incubated for 16 hours under hypoxic condition and to separate proteins the cells were cultured for 6 hours under hypoxic condition. […] HIF-1α expression was investigated by Western blotting. Samples from each group proceeded to 8% SDS-PAGE for electrophoresis and were then transferred onto nitrocellulose membrane (Schleicher & Schuell Bioscience, USA). Anti-human HIF-1α antibody (BD Pharmingen, USA) (1:800) was used as a primary antibody and mouse-Ig conjugated horseradish peroxidase (1:3,000) was used as a secondary antibody. Anti-β tubulin antibody (BD, Pharmingen, USA) was used as a control.

HIF-1α [2] = test: Effects of CQ and TPEN on HIF-1α stabilization in SH-SY5Y cells (Western blotting); assay type: cell-based, human
Method: Human SH-SY5Y neuroblastoma cells (ATCC CRL-2266) were cultured under normoxic condition and hypoxic condition, respectively. SH-SY5Y cells were cultured in MEM (Invitrogen, USA) containing non-essential amino acids and supplemented with 10% FBS (fetal bovine serum: Biowhittaker, USA). The cells were made hypoxic by incubation in anaerobic incubator (Model 1029, Form a Scientific Inc) at 37° C. with 5% CO2, 10% H2 and 85% N2. The cells were treated with drugs one hour before hypoxic treatment. To separate RNAs, the cells were incubated for 16 hours under hypoxic condition and to separate proteins the cells were cultured for 6 hours under hypoxic condition. […] HIF-1α expression was investigated by Western blotting. Samples from each group proceeded to 8% SDS-PAGE for electrophoresis and were then transferred onto nitrocellulose membrane (Sigma, USA). Anti-human HIF-1α antibody (BD, Pharmingen, USA) (1:800) was used as a primary antibody and mouse-Ig conjugated horseradish:peroxidase (1:3,000) was used as a secondary antibody. Anti-β tubulin antibody (BD, Pharmingen, USA) was used as a control.

human PHD2 = target: T1, human PHD2 (Homo sapiens, UniProt Q9GZT9); test: PHD2 activity, in vitro VHL pull down assay; assay type: biochemical; settings: capture of [35S]-labeled VHL by GST-ODD of human HIF-1α
T1 construct: histidine tag; made in house; host or cells: E. coli
Method: The present inventors investigated the effect of CQ on the activity of PHD2. Human PHD2 gene (AJ310543) was cloned into pET21b His2(+) vector and then the human PHD2 was expressed with a histidine tag in E. coli and purified by Ni-affinity chromatography (Choi, K. O. et al., Mol. Pharrmacol. 68, 1803-1809, 2005). The in vitro VHL pull down assay was performed as described by Haakkola et al (Haakkola, P. et al., Science 292,468-472, 2001). Particularly, [^35S]-methionine-labeled VHL protein was synthesized by in vitro transcription and translation using the pcDNA3.1/myc-hygro-VHL plasmid (Promega, Cat# L1170, USA), according to the instruction manual (Promega, Cat# L1170). GST-ODD (amino acids 401-603 of human HIF-1α) was expressed in E. coli and purified with glutathione-uniflow resin according to the instruction manual (BD Bioscience Clontech, Cat# 8912-1, USA). […] After agitation at 4° C. for 2 hours, the resin was washed three times with 1 ml of NETN buffer, and proteins were eluted in 3×SDS sample buffer, fractionated by 12% SDS-PAGE, and detected by autoradiography. The amount of each sample loaded was monitored by staining the GST-ODD with Coomassie blue.

HIF-1α and CBP = target: T2, HIF-1α and CBP (UniProt P45481+Q16665); test: In vitro interaction between HIF-1α and CBP; assay type: binding, human; settings: [35S]-labeled HIF-1α, bead-bound GST-CBP N-domain, with or without ZnCl2 20 μM
T2 construct: GST-CBP N-domain (amino acids 1-450); made in house
Method: Glutathione-uniflow resin bound protein was washed four times with 1 ml of 0.1% Nonidet P-40 containing binding buffer, eluted by heating in SDS sample buffer, and fractionated by SDS-PAGE (Dann et al., Proc Natl Acad Sci USA 99:15351-15356, 2002).

GAL4-HIF-1α = test: HIF-1α transactivation, Gal4-driven reporter gene assay in HepG2 cells; assay type: cell-based, human; settings: TPEN 5 μM, 16 hours
Method: Human HepG2 hepatoma cells were cultured at the concentration of 5×10^4, which were transfected with 100 ng of Gal-4-driven reporter plasmid encoding the firefly luciferase gene under the control of the Gal4 binding site together with pGal4/HIF-1α plasmid which expresses HIF-1α linked to the DNA binding domain of the yeast Gal4 protein (amino acids 1-147). The transfected human HepG2 hepatoma cells were incubated in both normoxic and hypoxic conditions and then treated with CQ (10, 50 μM) for 16 hours in normoxic condition. 48 hours after the transfection, luciferase activities were analyzed using the reporter gene assay system (Promega, USA) and normalized by β-galactosidase activities.

VEGF = test: Effects of CQ and TPEN on the expression of VEGF, a HIF-1α target gene (RT-PCR); assay type: cell-based, human; settings: TPEN 5 μM
Description: ID. […] ID. NO: 2 (5′-[…]-3′). […] ID. […] ID. NO: 4 (5′-[…]-3′).

FIH-1 = FIH-1 (Homo sapiens, UniProt Q9NWT6); test: In vitro FIH-1 activity (capture of radio-labeled HIF-1α by GST-CBP); assay type: biochemical; set-up: histidine tag; made in house; host or cells: E. coli; settings: CQ 10 μM and 50 μM; interaction between HIF-1α and CBP as readout
Method: The human FIH-1 gene (AF395830) was cloned into pET28a vector (Novagen, USA) and FIH-1 was overexpressed in E. coli as a histidine-tagged fusion protein and purified by Ni-affinity chromatography. The fusion protein was purified by gel-filtration chromatography (Hi-Load Superdex 200) and concentrated by ultrafiltration (Choi et al., Mol Pharmacol 68:1803-1809, 2005).
The resin-bound GST-CBP N-domain (amino acids 1-450) (Kamei et al., Cell 85:403-414, 1996) was then added to 1 μg of each mixture in 500 μl of binding buffer (200 mM Tris-HCl (pH 8.0), 150 mM NaCl, 20 μM ZnCl2, 0.5 mM DTT) and incubation continued for one hour at 4° C. Glutathione-uniflow resin bound protein was washed four times with 1 ml of 0.1% Nondiet P-40 containing binding buffer, and visualized by SDS-PAGE by eluting using SDS sample buffer (Dann et al., Proc Natl Acad Sci USA 99:15351-15356, 2002). The present inventors substituted the asparagine-803 residue of HIF-1α with alanine to generate HIF-1α mutant [HIF-1α-C(N803A)], followed by investigation on FIH-1 activity by the same manner as described above.
Radio-labeled HIF-1α was reacted with the purified recombinant FIH-1, in the presence or absence of CQ or TPEN. FIH-1 was expected to […] the asparagine-803 residue of HIF-1α and thus inhibit the interaction with CBP binding to HIF-1α transactivation domain (Mahon, P. C. et al., Genes Dev. 15, 2675-2686, 2001; Dannm C. E. R., et al., Proc. Natl. Acad. Sci. USA 99, 15351-15356, 2002; Lando, D., et al., Science 295, 858-861, 2002; Freedman, S. J. et al., Proc. Natl. Acad. Sci. USA 99, 5367-5372, 2002).

[3] = cited from earlier work

FIH-1, sequence (Q9NWT6 whole entry, the tested form may be a part): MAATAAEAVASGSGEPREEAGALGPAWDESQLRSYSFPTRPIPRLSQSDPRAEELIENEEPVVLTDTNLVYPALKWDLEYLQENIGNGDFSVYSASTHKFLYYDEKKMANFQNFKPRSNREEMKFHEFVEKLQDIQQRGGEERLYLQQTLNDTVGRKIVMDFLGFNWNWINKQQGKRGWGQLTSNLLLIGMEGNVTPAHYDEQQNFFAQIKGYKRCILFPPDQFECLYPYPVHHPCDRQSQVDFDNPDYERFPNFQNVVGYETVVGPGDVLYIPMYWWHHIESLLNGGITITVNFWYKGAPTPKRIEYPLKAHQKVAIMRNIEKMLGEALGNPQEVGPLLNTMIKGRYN
T1 sequence (Q9GZT9 whole entry): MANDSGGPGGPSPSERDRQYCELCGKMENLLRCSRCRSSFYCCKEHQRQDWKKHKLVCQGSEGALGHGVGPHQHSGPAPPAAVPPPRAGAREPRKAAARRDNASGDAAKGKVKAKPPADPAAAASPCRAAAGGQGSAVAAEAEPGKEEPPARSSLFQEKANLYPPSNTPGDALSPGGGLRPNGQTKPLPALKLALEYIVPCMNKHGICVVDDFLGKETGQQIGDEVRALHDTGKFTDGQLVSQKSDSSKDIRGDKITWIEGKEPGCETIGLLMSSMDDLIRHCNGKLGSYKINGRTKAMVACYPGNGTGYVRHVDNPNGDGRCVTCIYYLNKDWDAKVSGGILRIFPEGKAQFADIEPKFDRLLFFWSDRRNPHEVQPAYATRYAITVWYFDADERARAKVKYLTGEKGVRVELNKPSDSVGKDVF
T2 sequence (P45481 1-450 limits assumed, one chain of several): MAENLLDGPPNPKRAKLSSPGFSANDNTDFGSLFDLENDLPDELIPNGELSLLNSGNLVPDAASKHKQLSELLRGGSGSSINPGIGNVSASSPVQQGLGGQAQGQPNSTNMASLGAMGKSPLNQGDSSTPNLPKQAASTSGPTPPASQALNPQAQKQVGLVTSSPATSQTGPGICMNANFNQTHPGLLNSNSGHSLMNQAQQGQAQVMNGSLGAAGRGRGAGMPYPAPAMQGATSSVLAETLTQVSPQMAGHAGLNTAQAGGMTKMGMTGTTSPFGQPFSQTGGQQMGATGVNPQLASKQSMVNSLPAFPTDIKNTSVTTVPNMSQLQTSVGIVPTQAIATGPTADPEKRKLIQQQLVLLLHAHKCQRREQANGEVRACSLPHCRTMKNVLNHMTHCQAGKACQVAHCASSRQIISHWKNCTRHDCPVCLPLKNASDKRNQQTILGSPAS

In the case of `c1ccc(CN(CCN(Cc2ccccn2)Cc2ccccn2)Cc2ccccn2)nc1` [TPEN, tetrakis-(2-pyridylmethyl)ethanediamine], the HIF-1α accumulation (HIF-1α [1]; hypoxic condition, CQ 10, 100 μM, compared with a control) is reported as “induced HIF-1α accumulation”, the “level of HIF-1α protein” value (HIF-1α [1]; normoxic condition, CQ 10, 100, 500 μM) is reported as “increased the level of HIF-1α protein” and the “level of HIF-1α protein” value (HIF-1α [2]; normoxic, 6 hours, TPEN 5 μM, CQ 10, 100 μM) is reported as “increased the level of HIF-1α protein”. The HIF-1α accumulation (HIF-1α [2]; oxygen condition not printed in the sentence (control also accumulated)) was “induced HIF-1α accumulation”, the “activity of PHD2” value (human PHD2) was “increased the activity of PHD2” and the “direct effect on the interaction between CBP and HIF-1α” value (HIF-1α and CBP) was “neither CQ nor TPEN directly affected the interaction between CBP and HIF-1α”. For the same molecule, the “transactivation activity of HIF-1α” value (GAL4-HIF-1α; hypoxic condition) was “increased HIF-1α activity”, the “transactivation activity of HIF-1α” value (GAL4-HIF-1α; normoxic condition, CQ 10, 50 μM) was “not in normoxic condition” and the VEGF expression (VEGF; HepG2 cells, normoxic, CQ 10, 100 μM) was “differed in their effects on VEGF expression”. The VEGF expression (VEGF; SH-SY5Y cells, normoxic condition, CQ 10, 100 μM) was “reduced VEGF expression”, the VEGF expression (VEGF; hypoxic condition, 16 hours, CQ 100 μM, SH-SY5Y and HepG2 cells) was “none of the control, TPEN and CQ increased VEGF expression” and the FIH-1 activity (FIH-1) was “did not reduce FIH-1 activity”. The “pKa value, Ca2+” value ([3]; Ca^2+) was 3, the “pKa value, Fe3+” value ([3]; Fe^3+) was 14.4 and the “pKa value, Zn2+” value ([3]; Zn^2+) was 15.4.
